Source: the NIST ThermoML archive (doi:10.1021/je0340248)

Tests used:
[1] = 101.33 kPa, Liquid
[2] = xn = mol fraction of the nth substance listed; conditions: 101 kPa, Liquid

OCCO [1,2-ethanediol]
[1]
Conditions | mass density [kg/m3] | speed of sound [m/s] | viscosity [mPa·s]
298.15 K | – | 1662 | 14.82
303.15 K | 1106.63 | – | –
308.15 K | – | 1635 | 10.48
313.15 K | 1099.64 | – | –

CC(O)CO (configuration not stated) [1,2-propanediol]
[1]
Conditions | mass density [kg/m3] | speed of sound [m/s] | viscosity [mPa·s]
298.15 K | 1032.75 | 1492 | 43.43
303.15 K | 1029.02 | – | –
308.15 K | 1025.4 | 1454 | 24.24
313.15 K | 1021.53 | – | –

CC(=O)OCCC(C)C [3-methylbutyl ethanoate]
[1]
Conditions | mass density [kg/m3] | speed of sound [m/s] | viscosity [mPa·s]
298.15 K | 866.21 | 1195 | 0.781
303.15 K | 861.05 | – | –
308.15 K | 855.85 | 1154 | 0.747
313.15 K | 852.95 | – | –

OCCOCCO [diethylene glycol] + COC(C)=O
[2]
Conditions | mass density, 298.15 K [kg/m3] | mass density, 303.15 K [kg/m3] | mass density, 308.15 K [kg/m3] | mass density, 313.15 K [kg/m3] | speed of sound, 298.15 K [m/s] | speed of sound, 308.15 K [m/s] | viscosity, 298.15 K [mPa·s] | viscosity, 308.15 K [mPa·s]
x2 = 0.0406 | 1107.83 | 1103.83 | 1100.41 | 1097.07 | 1562 | 1533 | 26.42 | 14.2
x2 = 0.1512 | 1091.77 | 1087.47 | 1083.89 | 1080.13 | 1513 | 1485 | 18.27 | 8.812
x2 = 0.2516 | 1076.55 | 1071.84 | 1068.15 | 1063.99 | 1472 | 1441 | 12.72 | 5.78
x2 = 0.3488 | 1061.26 | 1056.15 | 1052.35 | 1047.79 | 1431 | 1398 | 8.747 | 3.883
x2 = 0.44 | 1046.36 | 1040.88 | 1036.96 | 1032.05 | 1392 | 1357 | 6.023 | 2.698
x2 = 0.4926 | 1037.46 | 1031.79 | 1027.79 | 1022.69 | 1370 | 1334 | 4.811 | 2.196
x2 = 0.5504 | 1027.35 | 1021.49 | 1017.4 | 1012.1 | 1345 | 1308 | 3.728 | 1.757
x2 = 0.6509 | 1008.76 | 1002.63 | 998.36 | 992.71 | 1301 | 1260 | 2.345 | 1.203
x2 = 0.751 | 988.53 | 982.17 | 977.74 | 971.76 | 1258 | 1213 | 1.44 | 0.834
x2 = 0.8504 | 966.18 | 959.59 | 955.04 | 948.73 | 1214 | 1168 | 0.866 | 0.586
x2 = 0.9429 | 942.76 | 935.89 | 931.35 | 924.7 | 1174 | 1127 | 0.527 | 0.426

COC(C)=O [methyl ethanoate] + OCCO
[2]
Conditions | mass density, 298.15 K [kg/m3] | mass density, 303.15 K [kg/m3] | mass density, 308.15 K [kg/m3] | mass density, 313.15 K [kg/m3] | speed of sound, 298.15 K [m/s] | speed of sound, 308.15 K [m/s] | viscosity, 298.15 K [mPa·s] | viscosity, 308.15 K [mPa·s]
x1 = 0.0444 | 1100.26 | 1096.48 | 1092.85 | 1089.11 | 1627 | 1600 | 11.86 | 8.678
x1 = 0.1488 | 1077.91 | 1073.64 | 1070.12 | 1065.97 | 1550 | 1521 | 7.177 | 5.649
x1 = 0.2505 | 1056.96 | 1052.6 | 1049.33 | 1045.05 | 1482 | 1452 | 4.535 | 3.788
x1 = 0.3485 | 1037.61 | 1033.23 | 1030.22 | 1025.91 | 1424 | 1391 | 2.996 | 2.623
x1 = 0.4411 | 1020.06 | 1015.63 | 1012.78 | 1008.44 | 1374 | 1338 | 2.078 | 1.882
x1 = 0.4856 | 1011.89 | 1007.39 | 1004.56 | 1000.19 | 1351 | 1315 | 1.758 | 1.614
x1 = 0.5507 | 1000.2 | 995.55 | 992.71 | 988.26 | 1320 | 1282 | 1.39 | 1.296
x1 = 0.6503 | 982.94 | 977.9 | 974.92 | 970.21 | 1276 | 1237 | 0.994 | 0.941
x1 = 0.7489 | 966.49 | 960.93 | 957.65 | 952.55 | 1237 | 1196 | 0.734 | 0.697
x1 = 0.8498 | 950.22 | 944.03 | 940.33 | 934.64 | 1199 | 1157 | 0.554 | 0.522
x1 = 0.9453 | 935.24 | 928.45 | 924.26 | 917.85 | 1167 | 1122 | 0.435 | 0.404

OCCOCCOCCO [triethylene glycol] + CCCCOC(C)=O
[2]
Conditions | mass density, 298.15 K [kg/m3] | mass density, 303.15 K [kg/m3] | mass density, 308.15 K [kg/m3] | mass density, 313.15 K [kg/m3] | speed of sound, 298.15 K [m/s] | speed of sound, 308.15 K [m/s] | viscosity, 298.15 K [mPa·s] | viscosity, 308.15 K [mPa·s]
x2 = 0.0452 | 1108.89 | 1105.14 | 1101.13 | 1098.6 | 1586 | 1559 | 31.2 | 18.96
x2 = 0.1515 | 1083.49 | 1079.63 | 1075.41 | 1072.59 | 1524 | 1498 | 24.06 | 14.16
x2 = 0.2488 | 1060.06 | 1056.08 | 1051.65 | 1048.53 | 1470 | 1446 | 18.29 | 10.62
x2 = 0.3493 | 1035.73 | 1031.63 | 1026.98 | 1023.57 | 1420 | 1395 | 13.28 | 7.731
x2 = 0.4464 | 1012.14 | 1007.94 | 1003.07 | 999.41 | 1375 | 1350 | 9.402 | 5.575
x2 = 0.4953 | 1000.24 | 995.98 | 991.02 | 987.24 | 1355 | 1329 | 7.798 | 4.694
x2 = 0.5495 | 987.03 | 982.72 | 977.64 | 973.75 | 1334 | 1307 | 6.273 | 3.856
x2 = 0.6493 | 962.66 | 958.25 | 952.97 | 948.88 | 1298 | 1267 | 4.084 | 2.642
x2 = 0.7488 | 938.29 | 933.77 | 928.31 | 924.03 | 1265 | 1232 | 2.566 | 1.776
x2 = 0.8515 | 913.02 | 908.37 | 902.74 | 898.24 | 1233 | 1197 | 1.528 | 1.153
x2 = 0.9421 | 890.6 | 885.8 | 880.04 | 875.29 | 1207 | 1168 | 0.936 | 0.774

OCCOCCOCCO [triethylene glycol] + CCOC(C)=O
[2]
Conditions | mass density, 298.15 K [kg/m3] | mass density, 303.15 K [kg/m3] | mass density, 308.15 K [kg/m3] | mass density, 313.15 K [kg/m3] | speed of sound, 298.15 K [m/s] | speed of sound, 308.15 K [m/s] | viscosity, 298.15 K [mPa·s] | viscosity, 308.15 K [mPa·s]
x2 = 0.0466 | 1112.15 | 1108.39 | 1104.32 | 1101.76 | 1592 | 1567 | 30.14 | 18.65
x2 = 0.1482 | 1095.3 | 1091.27 | 1086.97 | 1084.07 | 1547 | 1523 | 22.05 | 13.71
x2 = 0.25 | 1077.4 | 1073.02 | 1068.55 | 1065.26 | 1499 | 1473 | 15.58 | 9.818
x2 = 0.3499 | 1058.65 | 1053.94 | 1049.34 | 1045.63 | 1452 | 1426 | 10.73 | 6.905
x2 = 0.4493 | 1038.63 | 1033.67 | 1028.96 | 1024.82 | 1408 | 1379 | 7.167 | 4.749
x2 = 0.4995 | 1027.95 | 1022.9 | 1018.12 | 1013.77 | 1386 | 1356 | 5.775 | 3.896
x2 = 0.5503 | 1016.71 | 1011.6 | 1006.75 | 1002.18 | 1363 | 1333 | 4.602 | 3.168
x2 = 0.6497 | 993.4 | 988.21 | 983.2 | 978.19 | 1318 | 1286 | 2.881 | 2.076
x2 = 0.749 | 968.18 | 962.95 | 957.73 | 952.29 | 1271 | 1236 | 1.748 | 1.329
x2 = 0.8503 | 940.27 | 934.9 | 929.41 | 923.53 | 1220 | 1181 | 1.015 | 0.823
x2 = 0.9417 | 913.03 | 907.33 | 901.55 | 895.28 | 1171 | 1130 | 0.604 | 0.523

OCCOCCOCCO [triethylene glycol] + COC(C)=O
[2]
Conditions | mass density, 298.15 K [kg/m3] | mass density, 303.15 K [kg/m3] | mass density, 308.15 K [kg/m3] | mass density, 313.15 K [kg/m3] | speed of sound, 298.15 K [m/s] | speed of sound, 308.15 K [m/s] | viscosity, 298.15 K [mPa·s] | viscosity, 308.15 K [mPa·s]
x2 = 0.0455 | 1115.19 | 1111.41 | 1107.51 | 1105.03 | 1598 | 1572 | 32.01 | 19.45
x2 = 0.1522 | 1103.73 | 1099.72 | 1095.8 | 1093.05 | 1559 | 1533 | 25.74 | 15.15
x2 = 0.2512 | 1091.78 | 1087.49 | 1083.5 | 1080.38 | 1521 | 1493 | 19.76 | 11.49
x2 = 0.3504 | 1078.53 | 1073.91 | 1069.84 | 1066.3 | 1482 | 1452 | 14.27 | 8.336
x2 = 0.4457 | 1064.43 | 1059.49 | 1055.35 | 1051.39 | 1446 | 1414 | 9.869 | 5.882
x2 = 0.49 | 1057.35 | 1052.25 | 1048.08 | 1043.93 | 1428 | 1396 | 8.158 | 4.935
x2 = 0.5519 | 1046.77 | 1041.46 | 1037.27 | 1032.85 | 1402 | 1369 | 6.128 | 3.806
x2 = 0.6512 | 1027.79 | 1022.13 | 1017.92 | 1013.08 | 1357 | 1323 | 3.687 | 2.422
x2 = 0.7516 | 1005.3 | 999.28 | 995.06 | 989.76 | 1305 | 1268 | 2.075 | 1.467
x2 = 0.8513 | 978.49 | 972.08 | 967.82 | 962.01 | 1246 | 1206 | 1.103 | 0.854
x2 = 0.9424 | 948.8 | 941.98 | 937.63 | 931.21 | 1188 | 1143 | 0.587 | 0.501
